Laboratory results reported in ChEMBL document CHEMBL5046228 (Eur J Med Chem, 2022).

Legend:
[1] = tested on: NCI-H1299; experiment: Induction of cell cycle arrest in human NCI-H1299 cells assessed as accumulation at S phase at 2.5 uM after 36 hrs by PI staining based flow cytometry analysis (reference value: 24.8%); assay type: functional
[2] = tested on: NCI-H1975; experiment: Induction of cell cycle arrest in human NCI-H1975 cells assessed as accumulation at S phase at 0.5 uM after 36 hrs by PI staining based flow cytometry analysis (reference value: 32.7 %); assay type: functional
[3] = tested on: NCI-H1975; experiment: Induction of cell cycle arrest in human NCI-H1975 cells assessed as accumulation at G0/G1 phase at 0.1 uM after 36 hrs by PI staining based flow cytometry analysis (reference value: 24.2%); assay type: functional
[4] = tested on: NCI-H1299; experiment: Induction of apoptosis in human NCI-H1299 cells assessed as increase in late apoptotic cells at 0.02 uM after 36 hrs by annexin-V-FITC/PI staining based flow cytometric analysis (reference value: 4.39%); assay type: functional
[5] = tested on: NCI-H1299; experiment: Induction of apoptosis in human NCI-H1299 cells assessed as increase in viable cells at 0.1 uM after 36 hrs by annexin-V-FITC/PI staining based flow cytometric analysis (reference value: 94.1%); assay type: functional
[6] = tested on: NCI-H1975; experiment: Induction of cell cycle arrest in human NCI-H1975 cells assessed as accumulation at S phase at 2.5 uM after 36 hrs by PI staining based flow cytometry analysis (reference value: 32.7 %); assay type: functional
[7] = tested on: NCI-H1299; experiment: Induction of apoptosis in human NCI-H1299 cells assessed as increase in early apoptotic cells at 0.02 uM after 36 hrs by annexin-V-FITC/PI staining based flow cytometric analysis (reference value: 0.79%); assay type: functional
[8] = tested on: NCI-H1299; experiment: Induction of cell cycle arrest in human NCI-H1299 cells assessed as accumulation at G0/G1 phase at 2.5 uM after 36 hrs by PI staining based flow cytometry analysis (reference value: 70.2%); assay type: functional
[9] = tested on: NCI-H1975; experiment: Induction of cell cycle arrest in human NCI-H1975 cells assessed as accumulation at G2/M phase at 0.5 uM after 36 hrs by PI staining based flow cytometry analysis (reference value: 43.1%); assay type: functional
[10] = tested on: NCI-H1299; experiment: Induction of cell cycle arrest in human NCI-H1299 cells assessed as accumulation at G2/M phase at 0.5 uM after 36 hrs by PI staining based flow cytometry analysis (reference value: 5.6%); assay type: functional
[11] = tested on: NCI-H1299; experiment: Induction of cell cycle arrest in human NCI-H1299 cells assessed as accumulation at G0/G1 phase at 0.1 uM after 36 hrs by PI staining based flow cytometry analysis (reference value: 70.2%); assay type: functional
[12] = tested on: NCI-H1299; experiment: Induction of cell cycle arrest in human NCI-H1299 cells assessed as accumulation at G2/M phase at 0.1 uM after 36 hrs by PI staining based flow cytometry analysis (reference value: 5.6%); assay type: functional
[13] = tested on: NCI-H1975; experiment: Induction of apoptosis in human NCI-H1975 cells assessed as increase in late apoptotic cells at 2.5 uM after 36 hrs by annexin-V-FITC/PI staining based flow cytometric analysis (reference value: 3.85%); assay type: functional
[14] = tested on: NCI-H1975; experiment: Induction of apoptosis in human NCI-H1975 cells assessed as increase in viable cells at 0.1 uM after 36 hrs by annexin-V-FITC/PI staining based flow cytometric analysis (reference value: 94.6%); assay type: functional
[15] = tested on: NCI-H1299; experiment: Induction of apoptosis in human NCI-H1299 cells assessed as increase in necrotic cells at 2.5 uM after 36 hrs by annexin-V-FITC/PI staining based flow cytometric analysis (reference value: 0.75%); assay type: functional
[16] = tested on: NCI-H1975; experiment: cells; assay type: functional, cell-based; conditions: Homo sapiens, NCI-H1975, 72 h
[17] = tested on: NCI-H1975; experiment: Induction of apoptosis in human NCI-H1975 cells assessed as increase in late apoptotic cells at 0.5 uM after 36 hrs by annexin-V-FITC/PI staining based flow cytometric analysis (reference value: 3.85%); assay type: functional
[18] = Selectivity index, ratio of IC50 Inhibition of wild type EGFR (unknown origin) to IC50 for Inhibition of EGFR T790M/C797S double mutant (unknown origin)
[19] = tested on: NCI-H1299; experiment: Induction of cell cycle arrest in human NCI-H1299 cells assessed as accumulation at S phase at 0.02 uM after 36 hrs by PI staining based flow cytometry analysis (reference value: 24.8%); assay type: functional
[20] = tested on: NCI-H1299; experiment: Induction of apoptosis in human NCI-H1299 cells assessed as increase in late apoptotic cells at 2.5 uM after 36 hrs by annexin-V-FITC/PI staining based flow cytometric analysis (reference value: 4.39%); assay type: functional
[21] = tested on: NCI-H1299; experiment: Induction of apoptosis in human NCI-H1299 cells assessed as increase in necrotic cells at 0.5 uM after 36 hrs by annexin-V-FITC/PI staining based flow cytometric analysis (reference value: 0.75%); assay type: functional
[22] = in vitro; conditions: human
[23] = tested on: NCI-H1975; experiment: Induction of apoptosis in human NCI-H1975 cells assessed as increase in early apoptotic cells at 0.1 uM after 36 hrs by annexin-V-FITC/PI staining based flow cytometric analysis (reference value: 1.24%); assay type: functional
[24] = tested on: NCI-H1975; experiment: Induction of apoptosis in human NCI-H1975 cells assessed as increase in necrotic cells at 0.02 uM after 36 hrs by annexin-V-FITC/PI staining based flow cytometric analysis (reference value: 0.35%); assay type: functional
[25] = tested on: NCI-H1299; experiment: Induction of apoptosis in human NCI-H1299 cells assessed as increase in viable cells at 0.5 uM after 36 hrs by annexin-V-FITC/PI staining based flow cytometric analysis (reference value: 94.1%); assay type: functional
[26] = target: Epidermal growth factor receptor (Homo sapiens, UniProt P00533); experiment: Inhibition of wild type EGFR (unknown origin) using flurogenic substrate in presence of ATP by HTRF assay
Epidermal growth factor receptor, sequence (P00533 whole entry): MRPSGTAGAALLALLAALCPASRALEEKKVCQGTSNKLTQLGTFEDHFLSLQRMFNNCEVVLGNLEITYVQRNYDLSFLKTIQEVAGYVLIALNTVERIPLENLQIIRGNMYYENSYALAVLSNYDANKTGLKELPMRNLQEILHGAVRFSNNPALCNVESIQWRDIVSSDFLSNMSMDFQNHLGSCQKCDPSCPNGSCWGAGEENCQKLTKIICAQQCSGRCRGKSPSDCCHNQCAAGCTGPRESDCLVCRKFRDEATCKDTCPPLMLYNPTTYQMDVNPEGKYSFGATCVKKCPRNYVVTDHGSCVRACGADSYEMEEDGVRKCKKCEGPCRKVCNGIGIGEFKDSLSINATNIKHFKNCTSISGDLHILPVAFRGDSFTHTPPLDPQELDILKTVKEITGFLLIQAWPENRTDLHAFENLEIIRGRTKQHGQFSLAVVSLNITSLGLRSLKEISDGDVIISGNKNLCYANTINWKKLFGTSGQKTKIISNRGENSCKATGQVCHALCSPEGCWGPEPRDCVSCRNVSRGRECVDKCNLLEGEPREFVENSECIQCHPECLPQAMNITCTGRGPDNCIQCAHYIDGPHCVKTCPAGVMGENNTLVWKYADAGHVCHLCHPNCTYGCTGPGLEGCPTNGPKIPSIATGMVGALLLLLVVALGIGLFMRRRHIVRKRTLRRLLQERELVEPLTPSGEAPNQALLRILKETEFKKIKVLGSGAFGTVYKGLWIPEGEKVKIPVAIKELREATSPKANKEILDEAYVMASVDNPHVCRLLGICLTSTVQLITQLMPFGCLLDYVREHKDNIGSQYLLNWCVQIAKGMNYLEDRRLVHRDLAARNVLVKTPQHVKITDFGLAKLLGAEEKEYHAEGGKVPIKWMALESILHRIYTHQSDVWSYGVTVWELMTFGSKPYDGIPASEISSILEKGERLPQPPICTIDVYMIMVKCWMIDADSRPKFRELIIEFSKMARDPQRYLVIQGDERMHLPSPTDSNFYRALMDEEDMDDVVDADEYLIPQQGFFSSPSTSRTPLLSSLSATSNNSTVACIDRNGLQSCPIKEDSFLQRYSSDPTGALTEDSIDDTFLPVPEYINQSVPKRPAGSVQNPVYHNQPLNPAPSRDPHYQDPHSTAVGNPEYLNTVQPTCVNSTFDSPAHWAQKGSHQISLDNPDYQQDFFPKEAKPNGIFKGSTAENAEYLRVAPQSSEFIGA

[27] = tested on: NCI-H1299; experiment: Induction of cell cycle arrest in human NCI-H1299 cells assessed as accumulation at G0/G1 phase at 0.02 uM after 36 hrs by PI staining based flow cytometry analysis (reference value: 70.2%); assay type: functional
[28] = tested on: NCI-H1299; experiment: Induction of cell cycle arrest in human NCI-H1299 cells assessed as accumulation at S phase at 0.1 uM after 36 hrs by PI staining based flow cytometry analysis (reference value: 24.8%); assay type: functional
[29] = tested on: NCI-H1299; experiment: Induction of apoptosis in human NCI-H1299 cells assessed as increase in necrotic cells at 0.1 uM after 36 hrs by annexin-V-FITC/PI staining based flow cytometric analysis (reference value: 0.75%); assay type: functional
[30] = tested on: NCI-H1975; experiment: Induction of cell cycle arrest in human NCI-H1975 cells assessed as accumulation at G2/M phase at 0.1 uM after 36 hrs by PI staining based flow cytometry analysis (reference value: 43.1%); assay type: functional
[31] = tested on: NCI-H1975; experiment: Induction of cell cycle arrest in human NCI-H1975 cells assessed as accumulation at S phase at 0.1 uM after 36 hrs by PI staining based flow cytometry analysis (reference value: 32.7 %); assay type: functional
[32] = tested on: NCI-H1975; experiment: Induction of apoptosis in human NCI-H1975 cells assessed as increase in viable cells at 0.02 uM after 36 hrs by annexin-V-FITC/PI staining based flow cytometric analysis (reference value: 94.6%); assay type: functional

## C#CCN(C)CCN(C)c1cc(OC)c(Nc2nccc(Nc3cn(C)c4ccccc34)n2)cc1NC(=O)C=C
[1]
  Activity: 24.7%
[2]
  Activity: 19.1%
[3]
  Activity: 19.1%
[4]
  Activity: 5.17%
[5]
  Activity: 92.6%
[6]
  Activity: 18.4%
[7]
  Activity: 1.05%
[8]
  Activity: 67.5%
[9]
  Activity: 62.6%
[10]
  Activity: 6%
[11]
  Activity: 70.6%
[12]
  Activity: 5.7%
[13]
  Activity: 7.25%
[14]
  Activity: 92.2%
[15]
  Activity: 0.6%
[16]
  IC50: 2.58 nM
[17]
  Activity: 8.52%
[18]
  Ratio IC50: > 2490
[19]
  Activity: 23.8%
[20]
  Activity: 6.35%
[21]
  Activity: 0.77%
[22]
  selectivity ratio: 38800
[23]
  Activity: 4.45%
[24]
  Activity: 0.038%
[25]
  Activity: 92.6%
[26]
  IC50: > 10000 nM
[27]
  Activity: 70.4%
[28]
  Activity: 23.7%
[29]
  Activity: 0.63%
[30]
  Activity: 58.2%
[31]
  Activity: 22.7%
[32]
  Activity: 94.9%
